Measured values taken from ChEMBL document CHEMBL1201862, “PubChem BioAssay data set” (2004).
Activity calls are given as the source filed them.

What was measured:
[1] = inhibitors of firefly luciferase expression or activity, dose response, H4 neuroglioma cells, luminescence (AID 1990); format: functional, cell-based
[2] = Luminescence Cell-Based Dose Response HTS to Identify Inhibitors of 5'UTR Stem-Loop Driven Prion Protein mRNA Translation in H4 Neuroglioblastoma Cells. [Related pubchem assays: 1827 (Project Summary), 1813 (Primary HTS)]; format: functional
[3] = inhibitors of SNCA 5'UTR-driven reporter translation, confirmation, H4 neuroglioma cells, luminescence (AID 1988); format: functional, cell-based
[4] = inhibitors of intracellular T. cruzi replication, confirmation, NIH3T3 host cells, beta-gal luminescence (AID 2044); format: functional, cell-based;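 further: intracellular parasites grown in NIH/3T3 mouse fibroblasts as host cells; luminescent beta-galactosidase reporter signal from transgenic T. cruzi replicating inside host cells; inhibitors lower the luminescence signal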
[5] = cytotoxicity toward NIH3T3 fibroblasts, dose response, counter-screen, cell-based, ATP luminescence, mouse fibroblasts (AID 2010); format: functional;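 further: cells exposed to compound for about 90 hours before reading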
[6] = biological target: T1, Microphthalmia-associated transcription factor (Homo sapiens, UniProt O75030); experiment: TRPM1 promoter luciferase signal decrease, dose response, MITF inhibitor project, cell-based, SK-MEL-5, cherry-picked, set 3 (AID 493073); format: functional
T1 sequence (O75030 whole entry): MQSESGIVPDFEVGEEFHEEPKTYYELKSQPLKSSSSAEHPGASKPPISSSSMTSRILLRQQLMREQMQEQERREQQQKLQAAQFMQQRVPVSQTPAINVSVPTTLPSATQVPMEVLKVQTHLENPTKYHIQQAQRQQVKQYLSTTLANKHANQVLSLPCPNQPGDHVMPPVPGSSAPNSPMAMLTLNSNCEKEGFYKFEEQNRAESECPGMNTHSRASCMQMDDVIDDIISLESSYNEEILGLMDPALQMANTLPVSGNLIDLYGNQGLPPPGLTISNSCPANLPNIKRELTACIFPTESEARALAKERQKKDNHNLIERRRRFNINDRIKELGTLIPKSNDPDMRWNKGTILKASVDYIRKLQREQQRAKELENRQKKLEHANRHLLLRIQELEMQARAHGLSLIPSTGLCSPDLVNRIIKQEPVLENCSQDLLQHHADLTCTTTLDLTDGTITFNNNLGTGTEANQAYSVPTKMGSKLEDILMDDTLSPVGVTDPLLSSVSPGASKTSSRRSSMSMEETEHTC

HEK293 [7] = experiment: cytotoxicity in HEK293T NF-kB-Luc cells, SAR follow-up, cytotoxicity control for NF-kB activator project, cell-based, resazurin fluorescence (AID 493251); format: functional; settings: Homo sapiens
Jurkat = experiment: SAR Analysis of small molecule inhibitors of T-cell specific antigen receptor-induced NF-kB activation in a Jurkat cell line using a luminescence assay - Set 2. [Related pubchem assays (depositor defined):AID435003, AID435012, AID465]; format: functional, cell-based; settings: Homo sapiens
HEK293 [8] = experiment: SAR Analysis of small molecule inhibitors of T-cell specific antigen receptor-induced NF-kB activation in a HEK-293T cell line using a luminescence assay - Set 2. [Related pubchem assays (depositor defined):AID435003, AID435012, AID489026]; format: functional, cell-based; settings: Homo sapiens
[9] = biological target: Beta-2 adrenergic receptor (Homo sapiens, UniProt P07550); experiment: beta2AR agonists driving receptor internalization, dose response, cell-based, FAP fluorogen, flow cytometry, cherry pick 1 (AID 588763); format: functional
Aurora kinase A = Aurora kinase A (Homo sapiens, UniProt O14965); format: functional;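 further: value from the Navigating the Kinome kinase panel profiling, panel entry STK6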
Aurora kinase B = Aurora kinase B (Homo sapiens, UniProt Q96GD4); format: functional
Escherichia coli = experiment: microbe, parasite or virus in culture
[10] = biological target: Proto-oncogene tyrosine-protein kinase receptor Ret (Homo sapiens, UniProt P07949); format: functional;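 further: measured within a kinome-wide profiling panel, RET as the panel member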
[11] = biological target: DNA dC->dU-editing enzyme APOBEC-3G (Homo sapiens, UniProt Q9HC16); experiment: APOBEC3G deaminase inhibitors, SAR follow-up, biochemical, fluorescence, single-stranded DNA substrate (AID 602136); format: functional; settings: read-out: IC50_Mean
[12] = biological target: DNA dC->dU-editing enzyme APOBEC-3A (Homo sapiens, UniProt P31941); experiment: SAR analysis of small molecule inhibitors of APOBEC3A DNA Deaminase via a fluorescence-based single-stranded DNA deaminase assay.; format: functional; settings: read-out: IC50_Mean
[13] = biological target: Melanin-concentrating hormone receptor 1 (Homo sapiens, UniProt Q99705); experiment: Late-stage fluorescence-based counterscreen for antagonists of the G-protein coupled receptor 7 (GPR7): cell-based dose response assay to identify antagonists of the melanin-concentrating hormone receptor 1 (MCHR1) Set 6.; format: functional
[14] = biological target: T2, Neuropeptides B/W receptor type 1 (Homo sapiens, UniProt P48145); experiment: GPR7 antagonist potency, late-stage follow-up, cell-based, fluorescence, dose response, set 6 (AID 588583); format: functional
T2 sequence (P48145 whole entry): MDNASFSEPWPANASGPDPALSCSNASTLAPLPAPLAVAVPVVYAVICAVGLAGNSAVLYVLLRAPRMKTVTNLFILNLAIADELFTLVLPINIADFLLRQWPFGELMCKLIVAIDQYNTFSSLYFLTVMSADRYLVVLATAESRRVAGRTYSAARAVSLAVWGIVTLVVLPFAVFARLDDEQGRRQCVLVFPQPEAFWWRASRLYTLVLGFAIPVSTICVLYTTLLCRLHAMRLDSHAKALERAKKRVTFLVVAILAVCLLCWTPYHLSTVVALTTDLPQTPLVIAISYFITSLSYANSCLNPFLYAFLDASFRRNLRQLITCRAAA

[15] = biological target: T3, Endoribonuclease toxin MazF (Escherichia coli K-12, UniProt P0AE70); experiment: MazF toxin RNase activators, dose response, biochemical, fluorescence, single-stranded RNA substrate, uHTS hits (AID 588481); format: functional
T3 sequence (P0AE70 whole entry): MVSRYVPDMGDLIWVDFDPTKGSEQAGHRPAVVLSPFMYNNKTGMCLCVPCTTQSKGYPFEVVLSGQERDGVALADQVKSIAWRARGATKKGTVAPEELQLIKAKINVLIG

[16] = biological target: T3, Endoribonuclease toxin MazF; experiment: fluorescent RNA oligo signal without MazF, dose response, counter-screen for MazEF activator project, biochemical, fluorescence, single-stranded RNase substrate (AID 588502); format: functional

Melanin-concentrating hormone receptor 1, sequence (Q99705 whole entry): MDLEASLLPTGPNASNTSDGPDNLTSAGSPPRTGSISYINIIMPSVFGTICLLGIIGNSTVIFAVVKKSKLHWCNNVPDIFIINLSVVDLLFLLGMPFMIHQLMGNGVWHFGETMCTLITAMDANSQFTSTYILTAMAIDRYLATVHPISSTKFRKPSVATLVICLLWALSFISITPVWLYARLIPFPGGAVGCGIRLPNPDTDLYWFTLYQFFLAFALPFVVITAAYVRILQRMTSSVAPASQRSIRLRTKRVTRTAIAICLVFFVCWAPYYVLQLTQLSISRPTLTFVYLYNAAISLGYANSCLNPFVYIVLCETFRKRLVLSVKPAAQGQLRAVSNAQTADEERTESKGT
Aurora kinase B, sequence (Q96GD4 whole entry): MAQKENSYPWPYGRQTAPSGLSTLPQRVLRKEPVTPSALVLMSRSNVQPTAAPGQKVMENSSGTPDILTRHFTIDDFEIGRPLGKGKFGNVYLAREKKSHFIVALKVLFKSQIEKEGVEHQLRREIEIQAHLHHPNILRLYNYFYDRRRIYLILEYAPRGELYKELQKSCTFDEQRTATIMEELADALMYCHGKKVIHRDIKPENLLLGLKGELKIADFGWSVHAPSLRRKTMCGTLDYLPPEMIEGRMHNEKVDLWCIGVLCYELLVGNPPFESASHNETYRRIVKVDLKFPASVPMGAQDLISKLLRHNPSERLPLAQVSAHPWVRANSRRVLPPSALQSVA
Aurora kinase A, sequence (O14965 whole entry): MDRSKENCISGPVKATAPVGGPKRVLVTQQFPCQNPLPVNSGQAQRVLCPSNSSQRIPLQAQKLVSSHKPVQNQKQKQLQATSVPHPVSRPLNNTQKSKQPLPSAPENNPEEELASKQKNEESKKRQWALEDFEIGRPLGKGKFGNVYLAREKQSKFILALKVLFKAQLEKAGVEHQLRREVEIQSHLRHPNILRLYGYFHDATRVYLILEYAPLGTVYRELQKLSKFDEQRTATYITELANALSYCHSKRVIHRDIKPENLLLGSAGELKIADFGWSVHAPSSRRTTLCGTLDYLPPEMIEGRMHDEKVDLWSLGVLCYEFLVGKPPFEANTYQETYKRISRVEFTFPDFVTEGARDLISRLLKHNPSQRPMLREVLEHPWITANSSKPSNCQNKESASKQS
DNA dC->dU-editing enzyme APOBEC-3A, sequence (P31941 whole entry): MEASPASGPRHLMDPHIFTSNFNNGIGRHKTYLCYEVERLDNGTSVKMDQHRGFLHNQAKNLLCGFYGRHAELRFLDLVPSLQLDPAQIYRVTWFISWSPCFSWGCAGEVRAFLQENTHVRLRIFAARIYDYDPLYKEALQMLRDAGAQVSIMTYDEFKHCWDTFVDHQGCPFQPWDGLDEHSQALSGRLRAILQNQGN
Beta-2 adrenergic receptor, sequence (P07550 whole entry): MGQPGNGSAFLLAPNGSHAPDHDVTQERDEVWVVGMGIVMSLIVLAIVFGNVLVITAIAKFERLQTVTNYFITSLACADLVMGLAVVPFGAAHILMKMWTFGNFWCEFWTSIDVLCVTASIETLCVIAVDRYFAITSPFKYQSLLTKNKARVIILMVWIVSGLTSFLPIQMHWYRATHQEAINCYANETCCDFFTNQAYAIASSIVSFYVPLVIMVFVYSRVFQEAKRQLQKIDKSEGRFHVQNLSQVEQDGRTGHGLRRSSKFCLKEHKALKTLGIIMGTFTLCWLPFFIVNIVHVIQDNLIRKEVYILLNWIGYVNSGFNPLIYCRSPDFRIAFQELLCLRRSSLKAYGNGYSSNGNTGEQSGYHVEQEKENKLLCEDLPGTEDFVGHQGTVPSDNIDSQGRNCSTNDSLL
DNA dC->dU-editing enzyme APOBEC-3G, sequence (Q9HC16 whole entry): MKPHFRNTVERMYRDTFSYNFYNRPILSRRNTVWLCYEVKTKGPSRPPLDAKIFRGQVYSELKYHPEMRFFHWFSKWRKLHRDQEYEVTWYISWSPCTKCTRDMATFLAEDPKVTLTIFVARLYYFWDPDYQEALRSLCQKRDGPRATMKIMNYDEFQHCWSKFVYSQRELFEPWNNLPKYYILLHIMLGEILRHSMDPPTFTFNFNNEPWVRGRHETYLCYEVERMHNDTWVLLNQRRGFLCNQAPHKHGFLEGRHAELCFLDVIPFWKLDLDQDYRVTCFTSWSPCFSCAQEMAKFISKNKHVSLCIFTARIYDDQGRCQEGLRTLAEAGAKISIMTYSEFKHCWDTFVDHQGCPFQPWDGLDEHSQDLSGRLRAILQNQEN
Proto-oncogene tyrosine-protein kinase receptor Ret, sequence (P07949 whole entry): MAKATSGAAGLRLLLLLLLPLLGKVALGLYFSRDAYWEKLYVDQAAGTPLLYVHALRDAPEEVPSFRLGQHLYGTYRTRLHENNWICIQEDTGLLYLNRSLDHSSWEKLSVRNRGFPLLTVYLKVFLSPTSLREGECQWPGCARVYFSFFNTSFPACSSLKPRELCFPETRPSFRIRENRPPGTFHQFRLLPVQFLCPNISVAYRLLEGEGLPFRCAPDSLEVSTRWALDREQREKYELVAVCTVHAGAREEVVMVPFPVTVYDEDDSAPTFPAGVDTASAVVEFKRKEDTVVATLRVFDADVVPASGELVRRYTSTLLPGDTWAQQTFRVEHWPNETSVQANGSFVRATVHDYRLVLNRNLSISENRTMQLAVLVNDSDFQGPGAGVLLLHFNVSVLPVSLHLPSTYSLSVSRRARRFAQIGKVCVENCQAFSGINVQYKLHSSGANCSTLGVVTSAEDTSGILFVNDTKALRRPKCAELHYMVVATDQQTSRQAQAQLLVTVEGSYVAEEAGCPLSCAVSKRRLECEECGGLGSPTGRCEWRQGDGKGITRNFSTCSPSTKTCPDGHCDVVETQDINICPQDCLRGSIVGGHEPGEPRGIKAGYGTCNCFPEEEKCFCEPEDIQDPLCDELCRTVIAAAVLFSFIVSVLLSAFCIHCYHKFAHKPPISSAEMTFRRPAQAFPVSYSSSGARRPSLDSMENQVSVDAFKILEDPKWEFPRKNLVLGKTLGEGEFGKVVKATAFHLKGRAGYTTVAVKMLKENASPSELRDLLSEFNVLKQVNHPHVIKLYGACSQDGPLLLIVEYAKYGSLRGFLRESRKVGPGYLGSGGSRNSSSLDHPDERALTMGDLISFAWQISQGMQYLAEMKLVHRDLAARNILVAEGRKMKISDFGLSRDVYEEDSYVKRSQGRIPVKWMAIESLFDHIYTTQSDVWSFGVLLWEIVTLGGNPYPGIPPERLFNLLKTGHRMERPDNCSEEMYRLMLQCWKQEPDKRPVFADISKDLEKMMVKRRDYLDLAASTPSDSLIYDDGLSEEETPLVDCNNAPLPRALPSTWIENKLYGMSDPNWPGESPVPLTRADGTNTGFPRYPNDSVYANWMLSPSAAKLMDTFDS

For CCN1CCN(c2ccc(NC(=O)c3ccc([N+](=O)[O-])o3)cc2Cl)CC1, the EC50 [1] was > 120 µM (not active), the EC50 [2] was > 120 µM (not active) and the EC50 [3] was 8.46 µM (active). The EC50 [4] was > 30 µM (not active), the EC50 [5] was 4.34 µM (active) and the AC50 [6] was 9.54 µM (active). The IC50 (HEK293 [7]) was 49.2 µM (inactive), the IC50 (Jurkat) was 15.8 µM (active) and the IC50 (HEK293 [8]) was 16.5 µM (active). The EC50 [9] was 6.22 µM (active).
For Nc1ccc(S(=O)(=O)O)c2cccc(O)c12, the Ki (Aurora kinase A) was 0.0794 µM (active) and the Ki (Aurora kinase B) was 0.251 µM (active).
With COc1ccccc1NS(=O)(=O)c1ccc2nc(S)oc2c1 the AC50 (Escherichia coli) was > 380 µM (inactive).
For CC(C)CC(=O)NC(c1ccc(C(C)C)cc1)c1ccc2cccnc2c1O (stereo not given), the IC50 (HEK293 [7]) was 18 µM (active), the IC50 (Jurkat) was 2.49 µM (active) and the IC50 (HEK293 [8]) was 7.36 µM (active).
In the case of CC(SCC1CCC2CC1C2(C)C)C(N)=O (stereo not given), the Ki [10] is reported as 100 µM (active).
With Cn1cccc1/C=C(/C#N)C(=O)Nc1cc(Cl)ccc1N1CCOCC1 the IC50 [11] was > 99 µM (inactive) and the IC50 [12] was > 99 µM (inactive).
In the case of CCOc1ccc(Oc2c(Cl)cnn(Cc3cccc4ccccc34)c2=S)cc1, the IC50 [13] is reported as 1.51 µM (active) and the IC50 [14] is reported as 1.51 µM (active).
For Cc1cnn(Cc2cccc3ccccc23)c(=O)c1C(C#N)c1ccccc1 (stereo not given), the IC50 [13] was 6.59 µM (active) and the IC50 [14] was 6.59 µM (active).
With CN(C)c1ccc(/C=N/N(CCC#N)C2=NS(=O)(=O)c3ccccc32)cc1 the EC50 [15] was > 99 µM (inactive) and the EC50 [16] was 42.5 µM (inactive).
